Data published in US20220227707A1, “COMPOUNDS AND COMPOSITIONS FOR TREATING CONDITIONS ASSOCIATED WITH NLRP ACTIVITY” (Novartis AG, priority 2019, published 2022).

Test system: IL-1β production in PMA-differentiated THP-1 cells
Assay: IL-1β production in PMA-differentiated THP-1 cells stimulated with gramicidin (hTHP-1 assay)
Assay type: cell-based, human
Experimental: Procedure 1: IL-1β Production in PMA-Differentiated THP-1 Cells Stimulated with Gramicidin
THP-1 cells were purchased from the American Type Culture Collection and sub-cultured according to instructions from the supplier. Cells were cultured in complete RPMI 1640 (containing 10% heat inactivated FBS, penicillin (100 units/ml) and streptomycin (100 μg/ml)), and maintained in log phase prior to experimental setup. Prior to the experiment, compounds were dissolved in dimethyl sulfoxide (DMSO) to generate a 30 mM stock. The compound stock was first pre-diluted in DMSO to 3, 0.34, 0.042 and 0.0083 mM intermediate concentrations and subsequently spotted using Echo550 liquid handler into an empty 384-well assay plate to achieve desired final concentration (e.g. 100, 33, 11, 3.7, 1.2, 0.41, 0.14, 0.046, 0.015, 0.0051, 0.0017 μM). DMSO was backfilled in the plate to achieve a final DMSO assay concentration of 0.37%. The plate was then sealed and stored at room temperature until required.
THP-1 cells were treated with PMA (Phorbol 12-myristate 13-acetate) (20 ng/ml) for 16-18 hours. On the day of the experiment the media was removed and adherent cells were detached with trypsin for 5 minutes. Cells were then harvested, washed with complete RPMI 1640, spun down, and resuspended in RPMI 1640 (containing 2% heat inactivated FBS, penicillin (100 units/ml) and streptomycin (100 μg/ml). The cells were plated in the 384-well assay plate containing the spotted compounds at a density of 50,000 cells/well (final assay volume 50 μl). Cells were incubated with compounds for 1 hour and then stimulated with gramicidin (5 μM) (Enzo) for 2 hours. Plates were then centrifuged at 340 g for 5 min. Cell free supernatant ([…]) was collected using a 96-channel PlateMaster (Gilson) and the production of IL-1β was evaluated by HTRF (cisbio). The plates were incubated for 18 h at 4° C. and read using the preset HTRF program (donor emission at 620 nm, acceptor emission at 668 nm) of the SpectraMax i3x spectrophotometer (Molecular Devices, software SoftMax 6). A vehicle only control and a dose titration of CRID3 (100-0.0017 μM) were run concurrently with each experiment.
Procedure 2: […] Production in PMA-Differentiated THP-1 Cells Stimulated with Gramicidin
THP-1 cells were purchased from the American Type Culture Collection and sub-cultured according to instructions from the supplier. Prior to experiments, cells were cultured in complete RPMI 1640 (containing 10% heat inactivated FBS, penicillin (100 units/ml) and streptomycin (100 μg/ml)), and maintained in log phase prior to experimental setup. Prior to the experiment THP-1 were treated with PMA (Phorbol 12-myristate 13-acetate) (20 ng/ml) for 16-18 hours. Compounds were dissolved in dimethyl sulfoxide (DMSO) to generate a 30 mM stock. On the day of the experiment the media was removed and adherent cells were detached with trypsin for 5 minutes. Cells were then harvested, washed with complete RPMI 1640, spun down, resuspended in RPMI 1640 (containing 2% heat inactivated FBS, penicillin (100 units/ml) and streptomycin (100 μg/ml). The cells were plated in a 384-well plate at a density of 50,000 cells/well (final assay volume 50 μl). Compounds were first dissolved in assay medium to obtain a 5× top concentration of 500 μM. 10 step dilutions (1:3) were then undertaken in assay medium containing 1.67% DMSO. 5× compound solutions were added to the culture medium to achieve desired final concentration (e.g. 100, 33, 11, 3.7, 1.2, 0.41, 0.14, 0.046, 0.015, 0.0051, 0.0017 μM). Final DMSO concentration was at 0.37%. Cells were incubated with compounds for 1 hour and then stimulated with gramicidin (5 μM) (Enzo) for 2 hours. Plates were then centrifuged at 340 g for 5 min. Cell free supernatant (40 μL) was collected using a 96-channel PlateMaster (Gilson) and the production of IL-1β was evaluated by HTRF (cisbio). A vehicle only control and a dose titration of CRID3 (100-0.0017 μM) were run concurrently with each experiment. […]

[1] = Homo sapiens, THP-1, Average IC50, hTHP-1 assay containing 2% fetal bovine serum, Table 10, numeric values
[2] = Average IC50, hTHP-1 assay containing 2% fetal bovine serum, Table 10, numeric values
[3] = Homo sapiens, THP-1, Average IC50, hTHP-1 assay containing 2% fetal bovine serum, Table 10, class symbols
[4] = Average IC50, hTHP-1 assay containing 2% fetal bovine serum, Table 10, class symbols

Row | SMILES | IC50 [1] [µM] | IC50 [3] [µM] | also measured
1 | CN(C)S(C)(=O)=NC(=O)Nc1c2c(cc3c1CCC3)CCC2 (single isomer, unassigned) [Compound 101, N′-((1,2,3,5,6,7-hexahydro-s-indacen-4-yl)carbamoyl)-N,N-dimethylmethanesulfonimidamide] | > 30 | – | –
2 | CN(C)S(C)(=O)=NC(=O)Nc1c2c(cc3c1CCC3)CCC2 (single isomer, unassigned) [Compound 102, N′-((1,2,3,5,6,7-hexahydro-s-indacen-4-yl)carbamoyl)-N,N-dimethylmethanesulfonimidamide] | – | – | IC50 [2]: > 30 µM
3 | CN(C)Cc1ccc(CS(N)(=O)=NC(=O)Nc2c3c(cc4c2CCC4)CCC3)cc1 (single isomer, unassigned) [Compound 105] | > 30 | – | –
4 | CN(C)Cc1ccc(CS(N)(=O)=NC(=O)Nc2c3c(cc4c2CCC4)CCC3)cc1 (single isomer, unassigned) [Compound 106] | – | 1 to 5 | –
5 | CN1CCC(CS(N)(=O)=NC(=O)Nc2c3c(cc4c2CCC4)CCC3)C1 (single isomer, unassigned) [Compound 113] | > 30 | – | –
6 | CN1CCC(CS(N)(=O)=NC(=O)Nc2c3c(cc4c2CCC4)CCC3)C1 (single isomer, unassigned) [Compound 114] | – | 5 to 30 | –
7 | CS(N)(=O)=NC(=O)Nc1c2c(cc3c1CCC3)CCC2 (single isomer, unassigned) [Compound 116] | > 30 | – | –
8 | CS(N)(=O)=NC(=O)Nc1c2c(cc3c1CCC3)CCC2 (single isomer, unassigned) [Compound 117] | – | 5 to 30 | –
9 | CN(C)CCCC(=O)NS(C)(=O)=NC(=O)Nc1c2c(cc3c1CCC3)CCC2 (single isomer, unassigned) [Compound 118, 4-(dimethylamino)-N—(N-((1,2,3,5,6,7-hexahydro-s-indacen-4-yl)carbamoyl)-S-methylsulfonimidoyl)butanamide] | > 30 | – | –
10 | CN(C)CCCC(=O)NS(C)(=O)=NC(=O)Nc1c2c(cc3c1CCC3)CCC2 (single isomer, unassigned) [Compound 119, 4-(dimethylamino)-N—(N-((1,2,3,5,6,7-hexahydro-s-indacen-4-yl)carbamoyl)-S-methylsulfonimidoyl)butanamide] | – | 5 to 30 | –
11 | CC(CN(C)C)CS(N)(=O)=NC(=O)Nc1c2c(cc3c1CCC3)CCC2 (single isomer, unassigned) [Compound 122, 3-(dimethylamino)-N′-((1,2,3,5,6,7-hexahydro-s-indacen-4-yl)carbamoyl)-2-methylpropane-1-sulfonimidamide] | – | 1 to 5 | –
12 | CC(CN(C)C)CS(N)(=O)=NC(=O)Nc1c2c(cc3c1CCC3)CCC2 (single isomer, unassigned) [Compound 124, 3-(dimethylamino)-N′-((1,2,3,5,6,7-hexahydro-s-indacen-4-yl)carbamoyl)-2-methylpropane-1-sulfonimidamide] | > 30 | – | –
13 | CC(CN(C)C)CS(N)(=O)=NC(=O)Nc1c2c(cc3c1CCC3)CCC2 (single isomer, unassigned) [Compound 127, 3-(dimethylamino)-N′-((1,2,3,5,6,7-hexahydro-s-indacen-4-yl)carbamoyl)-2-methylpropane-1-sulfonimidamide] | – | – | IC50 [2]: > 30 µM
14 | NS(=O)(=NC(=O)Nc1c2c(cc3c1CCC3)CCC2)C1Cc2ccccc2C1 (single isomer, unassigned) [Compound 129] | – | 5 to 30 | –
15 | NS(=O)(=NC(=O)Nc1c2c(cc3c1CCC3)CCC2)C1Cc2ccccc2C1 (single isomer, unassigned) [Compound 130] | > 30 | – | –
16 | CN1CCC(S(N)(=O)=NC(=O)Nc2c3c(cc4c2CCC4)CCC3)C1 (single isomer, unassigned) [Compound 134, N′-((1,2,3,5,6,7-hexahydro-s-indacen-4-yl)carbamoyl)-1-methylpyrrolidine-3-sulfonimidamide] | > 30 | – | –
17 | CN(C)CCCS(N)(=O)=NC(=O)Nc1c2c(cc3c1CCC3)CCC2 (single isomer, unassigned) [Compound 142, 3-(dimethylamino)-N′-((1,2,3,5,6,7-hexahydro-s-indacen-4-yl)carbamoyl)propane-1-sulfonimidamide] | – | – | IC50 [4]: 1 to 5 µM

Row | SMILES | IC50 [1] [µM] | IC50 [3] [µM] | also measured
18 | CN(C)CCCS(N)(=O)=NC(=O)Nc1c2c(cc3c1CCC3)CCC2 (single isomer, unassigned) [Compound 143, 3-(dimethylamino)-N′-((1,2,3,5,6,7-hexahydro-s-indacen-4-yl)carbamoyl)propane-1-sulfonimidamide] | – | – | IC50 [4]: 5 to 30 µM
19 | NS(=O)(=NC(=O)Nc1c2c(cc3c1CCC3)CCC2)C1CCC1 (single isomer, unassigned) [Compound 145] | > 30 | – | –
20 | NS(=O)(=NC(=O)Nc1c2c(cc3c1CCC3)CCC2)C1CCC1 (single isomer, unassigned) [Compound 146] | – | – | IC50 [2]: > 30 µM
21 | NS(=O)(=NC(=O)Nc1c2c(cc3c1CCC3)CCC2)C1CC1 (single isomer, unassigned) [Compound 154] | – | 5 to 30 | –
22 | NS(=O)(=NC(=O)Nc1c2c(cc3c1CCC3)CCC2)C1CC1 (single isomer, unassigned) [Compound 155] | – | – | IC50 [4]: 5 to 30 µM
23 | CC(C)(O)c1ccc(CS(N)(=O)=NC(=O)Nc2c3c(cc4c2CCC4)CCC3)cc1 (single isomer, unassigned) [Compound 165a] | – | – | IC50 [4]: 1 to 5 µM
24 | CC(C)(O)c1ccc(CS(N)(=O)=NC(=O)Nc2c3c(cc4c2CCC4)CCC3)cc1 (single isomer, unassigned) [Compound 165b] | – | – | IC50 [4]: 0.04 to 0.2 µM
25 | CN(C)S(N)(=O)=NC(=O)Nc1c2c(cc3c1CCC3)CCC2 (stereo not shown) [Compound 101B, 3-[amino(dimethylamino)oxo-lambda6-sulfanylidene]-1-(1,2,3,5,6,7-hexahydro-s-indacen-4-yl)urea] | – | – | IC50 (Homo sapiens, THP-1, Average IC50, hTHP-1 assay containing 2% fetal bovine serum, Table 3B, class symbols): 5 to 30 µM
26 | CNS(C)(=O)=NC(=O)Nc1c2c(cc3c1CCC3)CCC2 (stereo not shown) [Compound 103, N′-((1,2,3,5,6,7-hexahydro-s-indacen-4-yl)carbamoy1)-N-methylmethane-sulfonimidamide] | > 30 | – | –
27 | CN(C)Cc1ccc(CS(N)(=O)=NC(=O)Nc2c3c(cc4c2CCC4)CCC3)cc1 (stereo not shown) [Compound 104, 1-(4-((dimethylamino)methyl)pheny1)-N′-((1,2,3,5,6,7-hexahydro-s-indacen-4-yl)carbamoyl) methane-sulfonimidamide] | – | 1 to 5 | –
28 | CN(C)S(C)(=O)=NC(=O)Nc1c2c(cc3c1CCC3)CCC2 (stereo not shown) [Compound 107] | > 30 | – | –
29 | CS(=O)(=NC(=O)Nc1c2c(cc3c1CCC3)CCC2)NC(=O)c1ccccc1 (stereo not shown) [Compound 108] | > 30 | – | –
30 | CC(CCc1ccccc1)S(N)(=O)=NC(=O)Nc1c2c(cc3c1CCC3)CCC2 (stereo not shown) [Compound 109] | – | 5 to 30 | –
31 | CC(=O)NS(C)(=O)=NC(=O)Nc1c2c(cc3c1CCC3)CCC2 (stereo not shown) [Compound 111] | – | 5 to 30 | –
32 | CN1CCC(CS(N)(=O)=NC(=O)Nc2c3c(cc4c2CCC4)CCC3)C1 (stereo not shown) [Compound 112, N′-((1,2,3,5,6,7-hexahydro-s-indacen-4-yl)carbamoy1)-1-(1-methylpyrrolidin-3-yl) methane-sulfonimidamide] | – | 1 to 5 | –
33 | CS(N)(=O)=NC(=O)Nc1c2c(cc3c1CCC3)CCC2 (stereo not shown) [Compound 115, N′-((1,2,3,5,6,7-hexahydro-s-indacen-4-yl)carbamoyl) methane-sulfonimidamide] | – | 5 to 30 | –
34 | CC(CN(C)C)CS(N)(=O)=NC(=O)Nc1c2c(cc3c1CCC3)CCC2 (stereo not shown) [Compound 121] | – | – | IC50 [4]: 5 to 30 µM
